Data taken from the METLIN SMRT retention time set (Domingo-Almenara et al. 2019).

Assay: gradient 5% acetonitrile 3 min, to 50% in 2 min, to 85% in 15 min, held 3 min, 100 µL/min
Conditions: column: Zorbax Extend-C18 2.1 x 50 mm; eluents: water / acetonitrile, 0.1% formic acid
Procedure, shortened: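 Pure standards were analyzed in mixtures of ~100 molecules using HPLC coupled to a quadrupole time-of-flight mass spectrometer, in both positive and negative ionization mode. Separation used a Zorbax Extend-C18 column (2.1 × 50 mm, 1.8 μm) at 100 μL/min, with water and acetonitrile each containing 0.1% formic acid. Dead and dwell volumes were 40 μL and 900 μL, and data were collected over 3 months. Retention time was read from computationally picked adduct peaks, each inspected manually.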
COc1ccccc1CNC(=O)CSc1ccc(-c2cccnc2)nn1 gave an RP-LC retention time of 592 s. Compound Cc1cccc(C)c1NC(=O)C1CCN(S(=O)(=O)c2ccc3c(c2)NC(=O)CO3)CC1 has an RP-LC retention time of 813 s. CCc1noc(NC(C)=O)c1-c1ccc(OC)c(S(=O)(=O)Nc2ccc(OC)c(Cl)c2)c1 showed an RP-LC retention time of 775 s. For COc1ccc(C2Cn3nnc(-c4nc(-c5ccsc5)no4)c3CO2)cc1 (stereo not drawn), the RP-LC retention time was 1070 s. O=C1CCCc2cc(S(=O)(=O)N3CCCC3C(=O)NC3CCCCCC3)ccc2N1 (stereo not drawn) gave an RP-LC retention time of 782 s. Work on CCCn1c2ccccc2c2nnc(SCC(=O)Nc3nc(-c4ccccc4)cs3)nc21 yielded an RP-LC retention time of 1080 s. For Cn1cc(C(=O)NCc2nc(-c3ccccc3)no2)nn1, the RP-LC retention time was 661 s. In the case of Cc1sc(-c2cc(C(F)(F)F)on2)cc1S(=O)(=O)NCc1ccccc1, the RP-LC retention time is reported as 1110 s. CCN(CC)C(=O)c1cnc2snc(C)c2c1N1CCC(C(=O)Nc2ccc(Br)cc2)CC1 showed an RP-LC retention time of 990 s. With CC1CCN(c2cc3c(cc2NC(=O)c2ccco2)n(C)c(=O)c(=O)n3C)CC1 the RP-LC retention time was 632 s. With Cc1csc(-c2csc(S(=O)(=O)N3CCN(c4cccc(C)c4C)CC3)c2)n1 the RP-LC retention time was 1310 s. For CN(CCc1noc(COc2ccc(Cl)cc2)n1)C(=O)NC(C)(C)C, the RP-LC retention time was 953 s. CCOC(=O)Cc1ccc(NC(=O)N2CCCC2c2cccs2)cc1 (stereo not drawn) showed an RP-LC retention time of 921 s. For Cc1cc(C)cc(C(=O)Nc2cc(-c3cccnc3)no2)c1, the RP-LC retention time was 838 s. Work on CS(=O)(=O)NC(=O)c1cc(Cl)c(COc2ccc(Cl)c(Cl)c2)cc1F yielded an RP-LC retention time of 1170 s. Compound CS(=O)(=O)N1CCC(OC2CCN(C(=O)Nc3ccc(F)cc3)CC2)CC1 has an RP-LC retention time of 729 s. Work on CCc1cc(=O)n(CC(=O)Nc2c(C)cccc2C)c(N2CCOCC2)n1 yielded an RP-LC retention time of 736 s. CCN(CC)C(=O)c1cnc2snc(C)c2c1N1CCC(C(=O)Nc2cc(OC)c(OC)c(OC)c2)CC1 gave an RP-LC retention time of 810 s. With Cc1ccc(-c2nc(-c3ccc4c(c3)nc(C)c(=O)n4C)no2)cc1 the RP-LC retention time was 1090 s. With O=C([C@@H]1C[C@H](Oc2ccccc2)CN1C(=O)CCc1nc2ccccc2s1)N1CCCC1 the RP-LC retention time was 815 s. Work on CCc1ccc(NS(=O)(=O)c2ccc3c(c2)C(=O)N(CC)c2ncccc2O3)cc1 yielded an RP-LC retention time of 1020 s. For O=C(c1cccnc1)N1CCC(COCc2ccccc2)CC1, the RP-LC retention time was 747 s. Compound Cc1nc2cc(-c3noc(-c4cccc(C#N)c4)n3)ccc2o1 has an RP-LC retention time of 977 s. COc1ccc(NC(=O)Cn2nc3cc(C)nc(Nc4ccc(C)c(F)c4)n3c2=O)cc1 gave an RP-LC retention time of 1040 s. With CC(C)CNC(=O)CC1Sc2ncccc2N(CC(C)C)C1=O (stereo not drawn) the RP-LC retention time was 791 s. CCn1ncc(NC(=O)COc2ccc(F)cc2)c(N2CCOCC2)c1=O gave an RP-LC retention time of 821 s. In the case of CN1CCN(CCNC(=O)C2CCCN(c3nc4ccccc4n(Cc4ccccc4)c3=O)C2)CC1 (stereo not drawn), the RP-LC retention time is reported as 662 s. Work on COc1cc(CNC(=O)c2nc(CCS(=O)(=O)c3ccc(C)cc3)no2)cc(OC)c1OC yielded an RP-LC retention time of 825 s. In the case of CCc1nc(-c2cc(S(=O)(=O)NCC(=O)N3CCOCC3)c(C)s2)no1, the RP-LC retention time is reported as 753 s. COc1ccc(CNC(=O)c2ccc3c(c2)nc2n3CCN(C(C)C)C2=O)c(OC)c1 showed an RP-LC retention time of 708 s. With CCOc1ccc(-n2ccn3c(CCCC(=O)N4CCN(c5ccccn5)CC4)nnc3c2=O)cc1 the RP-LC retention time was 606 s. Cc1noc(-c2nc(-c3cccnc3)no2)n1 showed an RP-LC retention time of 736 s. COCCN1CC(CO)C2(CCN(Cc3cccc(Cl)c3)CC2)C1 (stereo not drawn) gave an RP-LC retention time of 531 s. Cc1ccc(C)c(N2C(=O)CC(N3CCC(C(N)=O)CC3)C2=O)c1 (stereo not drawn) gave an RP-LC retention time of 601 s. Cn1c(N)c(S(=O)(=O)Nc2ccc(Br)cc2)c(=O)n(C)c1=O gave an RP-LC retention time of 672 s. Cc1ccccc1Nc1c(-c2ccc(O)cc2)nc2ccccn12 gave an RP-LC retention time of 653 s. With Cc1ccc(NC(=O)Nc2ccc(CC(N)=O)cc2)cc1C the RP-LC retention time was 675 s. In the case of CCn1cnc(S(=O)(=O)N2CCC(C(=O)NCc3ccc(C)cc3)CC2)c1, the RP-LC retention time is reported as 797 s. Cc1cc(C(=O)N2CCC3(CC2)CC(C)(O)CCO3)c(C)o1 (stereo not drawn) gave an RP-LC retention time of 677 s. Compound CCOC(=O)c1cc([N+](=O)[O-])sc1NC(=O)c1nc2ccccc2s1 has an RP-LC retention time of 1270 s. CN1C(=O)c2cc(C(=O)NCCCc3ccccc3)nn2CC1(C)C(=O)NCc1ccc(F)cc1 (stereo not drawn) showed an RP-LC retention time of 813 s. In the case of Cc1nnc2cc(N3CCN(S(=O)(=O)c4ccc(Br)cc4)CC3)cnn12, the RP-LC retention time is reported as 740 s. Cc1cc(N2CCOCC2)nc(N2CCN(S(=O)(=O)c3cc(C)c(C)cc3C)CC2)n1 gave an RP-LC retention time of 733 s. In the case of CC(C)CC(=O)Nc1c(-c2ccc(F)cc2)nc2ccccn12, the RP-LC retention time is reported as 650 s. For Cc1ccccc1Cc1nc(-c2cccc(-c3ccn[nH]3)c2)no1, the RP-LC retention time was 985 s. CSc1ccc(CCNC(=O)Cn2c(=O)c3cccn3c3ccc(F)cc32)cc1 showed an RP-LC retention time of 897 s. CCOC(=O)C1=C(CN2CCC(C(=O)OCC)CC2)NC(=O)NC1c1ccc(F)cc1 (stereo not drawn) gave an RP-LC retention time of 650 s. In the case of Cc1ccc2c(Nc3ccc(CC(=O)O)cc3)c(C(=O)N3CCCCC3C)cnc2n1 (stereo not drawn), the RP-LC retention time is reported as 580 s. In the case of Nc1nc(-c2ccc(O)cc2)cs1, the RP-LC retention time is reported as 547 s. O=C(NCc1ccc(C(F)(F)F)cc1)c1c(O)c2cccnc2[nH]c1=O showed an RP-LC retention time of 1010 s. In the case of O=C(Nc1cccc(C(F)(F)F)c1)C1CCN(C(=O)C2Sc3ccccc3NC2=O)CC1 (stereo not drawn), the RP-LC retention time is reported as 862 s. For O=C(c1nnn2c1COC(c1ccc(Cl)cc1)C2)N1CCSCC1 (stereo not drawn), the RP-LC retention time was 949 s. COc1cccc(CNC(=O)N2CCN(Cc3c(C)noc3C)CC2)c1 showed an RP-LC retention time of 593 s. Compound CCCCN(C)C(=O)CC1CCN(c2ccnc(NC)n2)CC1 has an RP-LC retention time of 577 s. Cc1ccc(C(O)Cn2ccn3nc(-c4cccs4)cc3c2=O)cc1 (stereo not drawn) gave an RP-LC retention time of 893 s. With Cc1oc2cc3oc(=O)c(CCC(=O)N4CCN(c5ccccn5)CC4)c(C)c3cc2c1C the RP-LC retention time was 682 s. O=C(CSc1cc(N2CCN(c3ccccc3F)CC2)ncn1)NCCC1=CCCCC1 showed an RP-LC retention time of 1190 s. With Cn1c(=O)c2c(nc(Cc3ccc(N)cc3)n2C)n(C)c1=O the RP-LC retention time was 621 s. O=C(C1=CN(c2ccc(F)cc2)c2cc(F)ccc2S1(=O)=O)N1CCCC1 showed an RP-LC retention time of 748 s. For Cc1cc2c(cc1S(=O)(=O)N1CCCC1C(=O)Nc1cccc(Cl)c1C)OC(C)C(=O)N2 (stereo not drawn), the RP-LC retention time was 891 s. COc1cc(C(=O)N2CCN(c3cc(C)n4c(C)nnc4n3)CC2)cc(OC)c1OC showed an RP-LC retention time of 587 s. With CC(NC(=O)CC1Sc2ccc(C(F)(F)F)cc2NC1=O)c1ccccc1 (stereo not drawn) the RP-LC retention time was 848 s. Compound CCCCNC(=O)Cn1c2ccccc2c2ncn(Cc3nc(-c4ccccc4)no3)c(=O)c21 has an RP-LC retention time of 910 s. c1ccc2c(c1)nnn1c3cnccc3nc21 gave an RP-LC retention time of 606 s. For COc1ccc(F)cc1S(=O)(=O)N1CCN(c2c(C)nn(-c3ccccc3)c2C)CC1, the RP-LC retention time was 965 s. For CC(C)NC(=O)N1CCC[C@H]1c1nc(-c2ccc(F)cc2)n[nH]1, the RP-LC retention time was 678 s. Compound CCCN1C(=O)Cc2ccccc2C1C(=O)NCc1ccc2c(c1)OCO2 (stereo not drawn) has an RP-LC retention time of 765 s. COC(=O)c1ccc(C(=O)OC)c(NC(=O)CSc2ncnc3sc(C)c(C)c23)c1 gave an RP-LC retention time of 1130 s. With O=C(Nc1ccc(Cl)cc1)C1CCN(c2nccnc2Sc2ccccc2)CC1 the RP-LC retention time was 1160 s. With CCCN1C(=O)Cc2c(C)nc(-c3cccc(F)c3)nc21 the RP-LC retention time was 1090 s. Work on Cc1nnc(SCC(=O)N2c3ccccc3CCc3ccccc32)s1 yielded an RP-LC retention time of 897 s. For COc1cccc(C(=O)NC2(C(F)(F)F)C(=O)N(CC3CCCO3)C3=C2C(=O)CC(C)(C)C3)c1 (stereo not drawn), the RP-LC retention time was 922 s. In the case of Cc1c(CNCc2ccccn2)c(C(=O)O)c(C)n1Cc1ccc(F)cc1, the RP-LC retention time is reported as 670 s. Compound O=C(CCc1nnc2c3cc(-c4ccc(F)cc4)nn3ccn12)NCCc1cccnc1 has an RP-LC retention time of 601 s. With Cc1ccc(-c2ncc(C(=O)Nc3ccccc3Br)c(-c3ccncc3)n2)cc1 the RP-LC retention time was 994 s. With CCc1nc2c(c(=O)n1CC(=O)Nc1ccccc1)CN(Cc1ccccc1)CC2 the RP-LC retention time was 638 s. In the case of CCN(CC)S(=O)(=O)c1ccc2c(c1)N(CC(=O)NCc1cccs1)C(=O)C1CCCCN21 (stereo not drawn), the RP-LC retention time is reported as 949 s. With CS(=O)(=O)N1C[C@@H](COc2ccncc2)[C@H](c2ccccn2)C1 the RP-LC retention time was 542 s. Compound O=S(=O)(c1ccc(-c2cnc(C3CCC3)o2)s1)N1CCN(c2ncccn2)CC1 has an RP-LC retention time of 1040 s. With COCCCNC(=O)C1CCCN(S(=O)(=O)c2cc(OC)ccc2OC)C1 (stereo not drawn) the RP-LC retention time was 699 s. In the case of CCOc1ccccc1NC(=O)NC(C)C(=O)N1CCc2ccccc21 (stereo not drawn), the RP-LC retention time is reported as 936 s. Compound CN1C(=O)CCc2cc(NC(=O)c3cccs3)ccc21 has an RP-LC retention time of 671 s. Cc1noc(C)c1C1CCCN1C(=O)CCc1ccccc1 (stereo not drawn) showed an RP-LC retention time of 775 s. Cc1cc(C(=O)NC2CC2)c2cc(Br)ccc2n1 gave an RP-LC retention time of 664 s. Compound COC(=O)c1cccc(-c2nc(C3CC(=O)N(c4ccc(Cl)cc4)C3)no2)c1 (stereo not drawn) has an RP-LC retention time of 1030 s. For CCOc1ccc(CNC(=O)c2cc(S(=O)(=O)N3CCCC3)c(C)n2C)cc1, the RP-LC retention time was 902 s. Cc1noc(-c2cccc(OC3CN(S(=O)(=O)c4cn(C)cn4)C3)c2)n1 showed an RP-LC retention time of 746 s. O=C1C[C@@H](c2ccc(O)c(O)c2)Oc2c1ccc(O[C@@H]1O[C@H](CO)[C@@H](O)[C@H](O)[C@H]1O)c2O gave an RP-LC retention time of 617 s.
